From patent US20070218134A1, “Compositions Comprising Organic Compounds” (priority 2003, published 2007)
Where a name gives a salt, the structure may show the parent alone.

Key:
[1] = degradation kinetics of fluvastatin in aqueous solution at various pH; type: physicochemical
Description: Certain HMG-CoA reductase inhibitors are extremely susceptible to degradation at pH below about 8. An example of such a compound comprises the compound having the USAN designation fluvastatin sodium (hereinafter “fluvastatin”), of the chemical designation: R*,S*-(E)(±)-7-[3-(4-fluorophenyl)-1-(1-methyl-ethyl)-1H-indol-2-yl]-3,5-dihydroxy-6-heptenoic acid, sodium salt, [see European Patent Application EP-A-114027].
For example, the degradation kinetics of fluvastatin in aqueous solution at various pH is illustrated below:
The above-indicated instability of fluvastatin and related HMG-CoA reductase compounds is believed to be due to the extreme lability of the β,δ-hydroxy groups on the heptenoic acid chain and the presence of the double bond, such that at neutral to acidic pH, the compounds readily undergo elimination or isomerization or oxidation reactions to form conjugated unsaturated aromatic compounds, as well as the threo isomer, the corresponding lactones, and other degradation products.

[2] = solubility of pitavastatin depending on pH; type: physicochemical; conditions: acidic pH conditions

| % fluvastatin remaining at 37° C. ([1]; pH 1.0, after 1 hour) [%] | % fluvastatin remaining at 37° C. ([1]; pH 1.0, after 24 hrs) [%] | % fluvastatin remaining at 37° C. ([1]; pH 4.0, after 1 hour) [%] | % fluvastatin remaining at 37° C. ([1]; pH 4.0, after 24 hrs) [%] | % fluvastatin remaining at 37° C. ([1]; pH 6.0, after 1 hour) [%] | % fluvastatin remaining at 37° C. ([1]; pH 6.0, after 24 hrs) [%] | % fluvastatin remaining at 37° C. ([1]; pH 7.8, after 1 hour) [%] | % fluvastatin remaining at 37° C. ([1]; pH 7.8, after 24 hrs) [%] | solubility of pitavastatin [2] | SMILES |
| --- | --- | --- | --- | --- | --- | --- | --- | --- | --- |
| 10.9 | 0 | 86.7 | 25.2 | 99.6 | 97.1 | 98.3 | 98.0 | – | CC(C)n1c(/C=C/C(O)CC(O)CC(=O)O)c(-c2ccc(F)cc2)c2ccccc21 (stereo not drawn) [fluvastatin, R*,S*-(E)(±)-7-[3-(4-fluorophenyl)-1-(1-methyl-ethyl)-1H-indol-2-yl]-3,5-dihydroxy-6-heptenoic acid, sodium salt] |
| – | – | – | – | – | – | – | – | higher | O=C(O)C[C@H](O)C[C@H](O)/C=C/c1c(C2CC2)nc2ccccc2c1-c1ccc(F)cc1 [pitavastatin] |
